US12419865B2 (priority 2018, dated 2025)
Read-outs that look alike come from different tables or passages of the source.

Key:
in vivo = conditions: mouse
replicative LASV [1] = test: microbe, parasite or virus in culture; format: cell-based, Lassa Virus; conditions: for EC90: Mammarenavirus lassaense
[2] = 1 h, pH 7.4
hERG channel = hERG channel (Homo sapiens, UniProt Q12809); conditions: pH 7.4
[3] = 1 h, pH 7.4; remark: listed apart in the source
[4] = mouse, in vivo, po
VSV-p = test: microbe, parasite or virus in culture; format: cell-based; conditions: Vesicular stomatitis virus, Vero, read-out: VSV-p EC50
in vitro = conditions: African green monkey
[5] = 1 h, pH 7.4; remark: listed apart in the source
MACV-p = test: organism not typed; format: cell-based, Machupo (MACV); conditions: Vero, read-out: MACV-p EC50
LASV-p = test: microbe, parasite or virus in culture; format: cell-based, Lassa (LASV); conditions: Vesicular stomatitis virus, Vero, read-out: LASV-p EC50
[6] = guinea pig, 1 h, pH 7.4
[7] = 1 h, pH 7.4; remark: listed apart in the source
[8] = mouse, in vivo, 30 mg/kg
replicative LASV [9] = test: microbe, parasite or virus in culture; format: cell-based, Lassa Virus; conditions: Mammarenavirus lassaense
[10] = 1 h, pH 7.4; remark: listed apart in the source
[11] = test system: native replicating Tacaribe (TCRV) virus; test: microbe, parasite or virus in culture; format: cell-based; conditions: Mammarenavirus tacaribeense, Vero, 120 h, read-out: TCRV EC50
TCRV-p = test: organism not typed; format: cell-based; conditions: read-out: TCRV-p EC50
JUNV-p = test: organism not typed; format: cell-based, Junin (JUNV); conditions: Vero, read-out: JUNV-p EC50

Chain of hERG channel (Q12809 whole entry): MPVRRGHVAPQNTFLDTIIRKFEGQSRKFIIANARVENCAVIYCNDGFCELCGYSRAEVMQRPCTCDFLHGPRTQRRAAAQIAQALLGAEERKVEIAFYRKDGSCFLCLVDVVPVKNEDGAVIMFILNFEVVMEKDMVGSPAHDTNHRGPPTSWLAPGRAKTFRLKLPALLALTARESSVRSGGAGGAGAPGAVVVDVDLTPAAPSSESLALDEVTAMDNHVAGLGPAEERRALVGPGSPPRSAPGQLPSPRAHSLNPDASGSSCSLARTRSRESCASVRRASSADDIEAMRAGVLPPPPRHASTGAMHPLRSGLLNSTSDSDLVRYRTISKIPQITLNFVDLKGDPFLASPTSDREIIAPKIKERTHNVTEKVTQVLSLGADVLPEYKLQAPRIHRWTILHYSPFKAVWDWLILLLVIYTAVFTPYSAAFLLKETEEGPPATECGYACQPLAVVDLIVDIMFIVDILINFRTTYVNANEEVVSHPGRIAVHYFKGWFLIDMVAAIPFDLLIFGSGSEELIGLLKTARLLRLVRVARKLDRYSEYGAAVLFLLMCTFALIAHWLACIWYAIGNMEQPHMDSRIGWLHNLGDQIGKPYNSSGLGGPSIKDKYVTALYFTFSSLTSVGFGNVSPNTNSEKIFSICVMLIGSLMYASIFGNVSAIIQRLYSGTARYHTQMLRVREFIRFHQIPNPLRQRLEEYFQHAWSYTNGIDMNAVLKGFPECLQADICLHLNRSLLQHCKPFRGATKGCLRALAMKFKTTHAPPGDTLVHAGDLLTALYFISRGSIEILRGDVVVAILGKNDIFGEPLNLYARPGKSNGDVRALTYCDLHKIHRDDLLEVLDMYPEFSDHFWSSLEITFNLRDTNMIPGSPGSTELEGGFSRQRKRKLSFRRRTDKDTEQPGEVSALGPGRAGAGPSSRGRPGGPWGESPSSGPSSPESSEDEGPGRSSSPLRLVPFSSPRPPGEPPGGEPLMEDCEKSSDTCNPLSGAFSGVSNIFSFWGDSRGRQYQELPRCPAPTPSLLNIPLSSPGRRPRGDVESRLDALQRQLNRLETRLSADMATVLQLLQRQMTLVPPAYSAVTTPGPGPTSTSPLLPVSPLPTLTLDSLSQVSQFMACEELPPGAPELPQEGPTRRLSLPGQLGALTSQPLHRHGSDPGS

Structure (SMILES): Cc1cc2ncn(-c3ccc(OC(C)(C)C)cc3)c2cc1-c1ccc(C(C)(C)O)cc1 [Example A1, 2-(4-(1-(4-(tert-butoxy)phenyl)-5-methyl-1H-benzo[d]imidazol-6-yl)phenyl)propan-2-ol]
- Vd (in vivo): 17.6 L/kg
- clearance (in vivo): 0.8 mL/min/kg
- AUC(0-t) (in vivo; po, 30 mg/kg): 183 µg·h/mL
- bioavailability (in vivo; po, 30 mg/kg): 35%
- half-life (in vivo; po, 30 mg/kg): 17 h
- Sl90 (replicative LASV [1]): >33,000
- EC90 (replicative LASV [1]; Vero, read-out: VYR Assay EC90): < 1 nM
- EC90 (replicative LASV [1]; read-out: EC90 in the VYR assay format): 1 to 3 nM
- Percent parent compound remaining at 60 minutes in liver microsomes, Dog [2]: >95%
- % Inhibition at 3 uM (hERG channel): <10%
- Percent parent compound remaining at 60 minutes in liver microsomes, Rat [3]: 93.8%
- 24 hr liver concentration [4]: 240.3 ug/g liver
- 24 hr plasma concentration [4]: 8.8 µg/mL
- EC50 (VSV-p): > 10000 nM
- CC50 (in vitro): 37700 nM
- Percent parent compound remaining at 60 minutes in liver microsomes, Human [5]: 68.3%
- EC50 (MACV-p): 0.12 nM
- EC50 (LASV-p): 0.83 nM
- Percent parent compound remaining at 60 minutes in liver microsomes, Guinea [6]: >95%
- Percent parent compound remaining at 60 minutes in liver microsomes, Monkey [7]: 8.6%
- Oral C-Max [8]: 20.4 µg/mL
- Oral T-Max [8]: 0.5 h
- EC50 (replicative LASV [9]; read-out: EC50 in the plaque assay format): 1 to 3 nM
- EC50 (replicative LASV [9]; read-out: Plaque Assay EC50): < 3 nM
- Percent parent compound remaining at 60 minutes in liver microsomes, Mouse [10]: 82.7%
- EC50 [11]: 0.89 nM
- EC50 (TCRV-p; Vero): 0.29 nM
- EC50 (TCRV-p): 0.24 nM
- EC50 (JUNV-p): 0.87 nM
